Results taken from patent publication US20230074545A1, “TREATMENT OF CANCER WITH CDK12/13 INHIBITORS” (Kinnate Biopharma Inc., priority 2019, published 2023).

Legend:
Assay in all cases: Radiometric kinase panel
Format in all cases: biochemical
IKKbeta = molecular target: T1, IKKbeta (Homo sapiens, UniProt O14920)
T1 construct: purchased ProQinase GmbH (Reaction Biology); host or cells: Sf9 insect cells or E. coli (not specified per kinase)
Procedure: (§1) The compounds 1-5 (see Table 1) were assayed for kinase activity at ProQinase (ProQinase GmbH, Reaction Biology; Freiburg, Germany) using their commercially available radiometric kinase assay services. Briefly, the compounds were provided as solids and were dissolved to 1×10^−03 M/100% DMSO stock solutions on the day of assay. All protein kinases were provided by ProQinase and were expressed in Sf9 insect cells or in E. coli as recombinant GST-fusion proteins or His-tagged proteins, either as full-length or enzymatically active fragments. All kinases were produced from human cDNAs and purified by either GSH-affinity chromatography or immobilized metal. The purity of the protein kinases was examined by SDS-PAGE/Coomassie staining, the identity was checked by mass spectroscopy. A radiometric protein kinase assay (^33PanQinase® Activity Assay) was used for measuring the kinase activity of the protein kinase. All kinase assays were performed in 96-well FlashPlates™ from PerkinElmer (Boston, Mass., USA) in a 50 microliter reaction volume. The reaction cocktail was pipetted in four steps in the following order: 1) 25 microliter of assay buffer (standard buffer/[gamma-^33P]-ATP); 2) 10 microliter of ATP solution (in H2O); 3) 5 microliter of test compound (in 10% DMSO); 4) 10 microliter of enzyme/substrate mixture.
(§2) Compound 4 was analyzed for selectivity against a panel of other kinases at ProQinase using their commercially available radiometric kinase assay services and the methods described in Example 1.

CDK19/CycC = molecular target: T2, CDK19/CycC (Homo sapiens, UniProt Q9BWU1)
T2 construct: either as full-length or enzymatically active fragments; purchased ProQinase GmbH (Reaction Biology); host or cells: Sf9 insect cells or E. coli (not specified per kinase)
Procedure: as §1, §2

RPS6KA2 = molecular target: T3, RPS6KA2 (Homo sapiens, UniProt Q15349)
T3 construct: either as full-length or enzymatically active fragments; purchased ProQinase GmbH (Reaction Biology); host or cells: Sf9 insect cells or E. coli
Procedure: as §1, §2

CDK6/CycD2 = molecular target: T4, CDK6/CycD2 (Homo sapiens, UniProt Q00534)
T4 construct: either as full-length or enzymatically active fragments; purchased ProQinase GmbH (Reaction Biology)
Procedure: as §1, §2

ERK5 = molecular target: T5, ERK5 (Homo sapiens, UniProt Q13164)
T5 construct: either as full-length or enzymatically active fragments; purchased ProQinase GmbH (Reaction Biology)
Procedure: as §1, §2

JNK3 = molecular target: T6, JNK3 (Homo sapiens, UniProt P53779)
T6 construct: either as full-length or enzymatically active fragments; purchased ProQinase GmbH (Reaction Biology)
Procedure: as §1, §2

ERK1 = molecular target: T7, ERK1 (Homo sapiens, UniProt P27361)
T7 construct: either as full-length or enzymatically active fragments; purchased ProQinase GmbH (Reaction Biology)
Procedure: as §1, §2

EPHB3 = molecular target: T8, EPHB3 (Homo sapiens, UniProt P54753)
T8 construct: either as full-length or enzymatically active fragments; purchased ProQinase GmbH (Reaction Biology)
Procedure: as §1, §2

CDK9/CycK = molecular target: T9, CDK9/CycK (Homo sapiens, UniProt P50750)
T9 construct: either as full-length or enzymatically active fragments; purchased ProQinase GmbH (Reaction Biology)
Procedure: as §1, §2

CDK6/CycD3 = molecular target: T10, CDK6/CycD3 (Homo sapiens, UniProt Q00534)
T10 construct: either as full-length or enzymatically active fragments; purchased ProQinase GmbH (Reaction Biology); host or cells: Sf9 insect cells or E. coli
Procedure: as §1, §2

PRKG1 = molecular target: T11, PRKG1 (Homo sapiens, UniProt Q13976)
T11 construct: either as full-length or enzymatically active fragments; purchased ProQinase GmbH (Reaction Biology)
Procedure: as §1, §2

PAK3 = molecular target: T12, PAK3 (Homo sapiens, UniProt O75914)
T12 construct: purchased ProQinase GmbH (Reaction Biology); host or cells: Sf9 insect cells or E. coli (not specified per kinase)
Procedure: as §1, §2

PASK = molecular target: T13, PASK (Homo sapiens, UniProt Q96RG2)
T13 construct: either as full-length or enzymatically active fragments; purchased ProQinase GmbH (Reaction Biology)
Procedure: as §1, §2

p38beta = molecular target: T14, p38beta (Homo sapiens, UniProt Q15759)
T14 construct: either as full-length or enzymatically active fragments; purchased ProQinase GmbH (Reaction Biology); host or cells: Sf9 insect cells or E. coli (not specified per kinase)
Procedure: as §1, §2

DDR2 = molecular target: T15, DDR2 (Homo sapiens, UniProt Q16832)
T15 construct: either as full-length or enzymatically active fragments; purchased ProQinase GmbH (Reaction Biology)
Procedure: as §1, §2

EIF2AK2 = molecular target: T16, EIF2AK2 (Homo sapiens, UniProt P19525)
T16 construct: either as full-length or enzymatically active fragments; purchased ProQinase GmbH (Reaction Biology); host or cells: Sf9 insect cells or E. coli
Procedure: as §1, §2

ABL1 = molecular target: T17, ABL1 (Homo sapiens, UniProt P00519)
T17 construct: purchased ProQinase GmbH (Reaction Biology)
Procedure: as §1, §2

DMPK = molecular target: T18, DMPK (Homo sapiens, UniProt Q09013)
T18 construct: either as full-length or enzymatically active fragments; purchased ProQinase GmbH (Reaction Biology); host or cells: Sf9 insect cells or E. coli
Procedure: as §1, §2

SGK2 = molecular target: T19, SGK2 (Homo sapiens, UniProt Q9HBY8)
T19 construct: purchased ProQinase GmbH (Reaction Biology); host or cells: Sf9 insect cells or E. coli (not specified per kinase)
Procedure: as §1, §2

INSR = molecular target: T20, INSR (Homo sapiens, UniProt P06213)
T20 construct: either as full-length or enzymatically active fragments; purchased ProQinase GmbH (Reaction Biology); host or cells: Sf9 insect cells or E. coli (not specified per kinase)
Procedure: as §1, §2

GRK6 = molecular target: T21, GRK6 (Homo sapiens, UniProt P43250)
T21 construct: purchased ProQinase GmbH (Reaction Biology)
Procedure: as §1, §2

FLT3 = molecular target: T22, FLT3 (Homo sapiens, UniProt P36888)
T22 construct: either as full-length or enzymatically active fragments; purchased ProQinase GmbH (Reaction Biology)
Procedure: as §1, §2

NEK1 = molecular target: T23, NEK1 (Homo sapiens, UniProt Q96PY6)
T23 construct: purchased ProQinase GmbH (Reaction Biology)
Procedure: as §1, §2

BUB1B = molecular target: T24, BUB1B (Homo sapiens, UniProt O60566)
T24 construct: either as full-length or enzymatically active fragments; purchased ProQinase GmbH (Reaction Biology); host or cells: Sf9 insect cells or E. coli
Procedure: as §1, §2

LTK = molecular target: T25, LTK (Homo sapiens, UniProt P29376)
T25 construct: purchased ProQinase GmbH (Reaction Biology); host or cells: Sf9 insect cells or E. coli (not specified per kinase)
Procedure: as §1, §2

CLK4 = molecular target: T26, CLK4 (Homo sapiens, UniProt Q9HAZ1)
T26 construct: purchased ProQinase GmbH (Reaction Biology)
Procedure: as §1, §2

GRK3 = molecular target: T27, GRK3 (Homo sapiens, UniProt P35626)
T27 construct: either as full-length or enzymatically active fragments; purchased ProQinase GmbH (Reaction Biology)
Procedure: as §1, §2

SNK = molecular target: T28, SNK (Homo sapiens, UniProt Q9NYY3)
T28 construct: either as full-length or enzymatically active fragments; purchased ProQinase GmbH (Reaction Biology); host or cells: Sf9 insect cells or E. coli (not specified per kinase)
Procedure: as §1, §2

HIPK2 = molecular target: T29, HIPK2 (Homo sapiens, UniProt Q9H2X6)
T29 construct: purchased ProQinase GmbH (Reaction Biology)
Procedure: as §1, §2

DAPK2 = molecular target: T30, DAPK2 (Homo sapiens, UniProt Q9UIK4)
T30 construct: either as full-length or enzymatically active fragments; purchased ProQinase GmbH (Reaction Biology); host or cells: Sf9 insect cells or E. coli (not specified per kinase)
Procedure: as §1, §2

FES = molecular target: T31, FES (Homo sapiens, UniProt P07332)
T31 construct: purchased ProQinase GmbH (Reaction Biology)
Procedure: as §1, §2

T16 sequence (P19525 whole entry, the tested form may be a part): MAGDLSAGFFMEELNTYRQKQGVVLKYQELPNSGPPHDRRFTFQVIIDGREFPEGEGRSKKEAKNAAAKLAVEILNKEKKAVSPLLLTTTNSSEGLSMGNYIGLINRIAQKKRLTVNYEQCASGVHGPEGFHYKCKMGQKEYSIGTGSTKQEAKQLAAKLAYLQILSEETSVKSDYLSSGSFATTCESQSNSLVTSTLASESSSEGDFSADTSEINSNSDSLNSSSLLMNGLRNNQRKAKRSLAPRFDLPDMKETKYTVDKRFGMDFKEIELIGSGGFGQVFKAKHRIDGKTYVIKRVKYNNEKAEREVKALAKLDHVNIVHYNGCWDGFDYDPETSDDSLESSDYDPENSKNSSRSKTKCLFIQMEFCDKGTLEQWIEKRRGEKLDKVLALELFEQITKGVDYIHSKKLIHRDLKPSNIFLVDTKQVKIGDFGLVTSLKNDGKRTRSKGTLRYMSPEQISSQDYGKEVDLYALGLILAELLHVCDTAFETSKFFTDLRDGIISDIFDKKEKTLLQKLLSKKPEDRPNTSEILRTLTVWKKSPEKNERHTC
T29 sequence (Q9H2X6 whole entry): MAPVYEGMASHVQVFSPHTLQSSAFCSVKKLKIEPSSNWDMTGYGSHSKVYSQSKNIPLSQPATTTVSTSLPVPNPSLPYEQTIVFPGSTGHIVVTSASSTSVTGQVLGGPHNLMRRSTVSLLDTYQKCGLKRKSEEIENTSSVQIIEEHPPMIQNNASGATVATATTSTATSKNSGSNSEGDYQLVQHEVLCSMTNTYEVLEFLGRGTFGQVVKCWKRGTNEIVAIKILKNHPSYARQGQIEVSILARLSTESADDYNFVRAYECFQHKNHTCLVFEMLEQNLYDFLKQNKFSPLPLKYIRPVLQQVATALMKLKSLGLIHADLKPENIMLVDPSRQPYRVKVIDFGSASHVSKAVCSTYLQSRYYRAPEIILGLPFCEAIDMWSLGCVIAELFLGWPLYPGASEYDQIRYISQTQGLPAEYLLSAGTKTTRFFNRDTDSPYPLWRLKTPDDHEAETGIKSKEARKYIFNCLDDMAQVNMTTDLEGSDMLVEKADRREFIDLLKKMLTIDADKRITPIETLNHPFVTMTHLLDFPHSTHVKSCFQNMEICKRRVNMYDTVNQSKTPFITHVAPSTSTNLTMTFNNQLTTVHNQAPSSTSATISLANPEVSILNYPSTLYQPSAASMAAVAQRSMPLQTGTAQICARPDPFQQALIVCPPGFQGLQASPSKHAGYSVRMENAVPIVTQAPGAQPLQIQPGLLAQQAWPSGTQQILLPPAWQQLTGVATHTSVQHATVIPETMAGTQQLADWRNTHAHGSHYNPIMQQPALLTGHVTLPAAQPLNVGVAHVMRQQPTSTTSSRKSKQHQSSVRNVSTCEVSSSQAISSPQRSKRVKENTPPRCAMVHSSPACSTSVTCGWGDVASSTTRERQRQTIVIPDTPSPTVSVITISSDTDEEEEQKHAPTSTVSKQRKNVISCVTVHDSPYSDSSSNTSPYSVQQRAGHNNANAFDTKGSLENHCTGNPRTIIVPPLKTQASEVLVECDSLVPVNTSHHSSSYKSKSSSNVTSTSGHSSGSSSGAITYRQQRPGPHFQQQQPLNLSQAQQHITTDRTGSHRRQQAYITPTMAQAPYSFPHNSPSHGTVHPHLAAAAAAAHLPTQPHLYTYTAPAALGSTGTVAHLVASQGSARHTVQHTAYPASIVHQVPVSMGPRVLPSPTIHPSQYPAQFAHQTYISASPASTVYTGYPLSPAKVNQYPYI
T30 sequence (Q9UIK4 whole entry, the tested form may be a part): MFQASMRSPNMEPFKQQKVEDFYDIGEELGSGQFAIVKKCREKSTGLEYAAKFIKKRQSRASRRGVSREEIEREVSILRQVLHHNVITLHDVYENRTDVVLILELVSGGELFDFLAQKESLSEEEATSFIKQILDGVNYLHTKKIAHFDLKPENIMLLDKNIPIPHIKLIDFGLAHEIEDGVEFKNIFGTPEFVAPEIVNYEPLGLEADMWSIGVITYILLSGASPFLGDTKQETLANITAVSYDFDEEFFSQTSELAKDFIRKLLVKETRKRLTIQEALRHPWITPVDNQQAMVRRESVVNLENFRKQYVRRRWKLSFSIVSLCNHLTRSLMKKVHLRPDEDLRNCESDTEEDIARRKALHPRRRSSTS
T14 sequence (Q15759 whole entry, the tested form may be a part): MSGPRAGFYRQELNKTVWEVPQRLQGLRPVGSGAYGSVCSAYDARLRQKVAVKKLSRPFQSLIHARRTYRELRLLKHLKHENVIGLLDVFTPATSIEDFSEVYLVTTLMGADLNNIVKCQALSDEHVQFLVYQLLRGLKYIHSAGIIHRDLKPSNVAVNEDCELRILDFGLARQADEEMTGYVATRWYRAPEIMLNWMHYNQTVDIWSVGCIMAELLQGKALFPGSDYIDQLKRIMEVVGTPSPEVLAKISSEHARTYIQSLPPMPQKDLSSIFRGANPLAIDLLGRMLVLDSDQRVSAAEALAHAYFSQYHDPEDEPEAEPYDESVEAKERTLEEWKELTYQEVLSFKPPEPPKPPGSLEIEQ
T10 sequence (Q00534 whole entry, the tested form may be a part): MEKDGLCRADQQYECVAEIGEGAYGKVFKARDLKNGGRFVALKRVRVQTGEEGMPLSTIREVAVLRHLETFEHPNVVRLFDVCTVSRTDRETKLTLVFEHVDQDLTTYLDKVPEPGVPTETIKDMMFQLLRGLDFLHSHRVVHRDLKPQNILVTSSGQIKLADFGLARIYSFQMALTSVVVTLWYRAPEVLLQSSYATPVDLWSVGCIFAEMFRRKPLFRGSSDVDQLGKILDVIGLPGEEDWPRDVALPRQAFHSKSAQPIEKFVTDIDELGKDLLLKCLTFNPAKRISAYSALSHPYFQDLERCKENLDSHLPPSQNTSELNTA
T10 sequence (P30281 whole entry partner, the tested form may be a part): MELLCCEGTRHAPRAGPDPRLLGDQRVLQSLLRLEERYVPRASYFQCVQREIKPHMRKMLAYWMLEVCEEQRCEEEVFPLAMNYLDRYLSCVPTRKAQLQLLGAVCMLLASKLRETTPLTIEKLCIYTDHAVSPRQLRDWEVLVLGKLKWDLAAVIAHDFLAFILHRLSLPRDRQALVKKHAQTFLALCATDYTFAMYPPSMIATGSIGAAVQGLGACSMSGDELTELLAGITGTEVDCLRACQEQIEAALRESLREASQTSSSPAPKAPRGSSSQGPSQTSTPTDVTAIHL
T4 sequence (Q00534 whole entry, the tested form may be a part): as the sequence (Q00534 whole entry, the tested form may be a part) above
T4 sequence (P30279 whole entry partner, the tested form may be a part): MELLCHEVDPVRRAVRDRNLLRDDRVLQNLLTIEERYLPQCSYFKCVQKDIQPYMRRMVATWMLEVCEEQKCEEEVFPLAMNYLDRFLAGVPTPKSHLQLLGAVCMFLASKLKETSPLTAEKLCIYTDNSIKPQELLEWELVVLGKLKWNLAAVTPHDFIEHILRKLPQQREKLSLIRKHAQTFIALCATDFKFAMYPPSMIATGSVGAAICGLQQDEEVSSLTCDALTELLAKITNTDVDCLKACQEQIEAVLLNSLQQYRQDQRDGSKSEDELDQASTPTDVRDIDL
T21 sequence (P43250 whole entry): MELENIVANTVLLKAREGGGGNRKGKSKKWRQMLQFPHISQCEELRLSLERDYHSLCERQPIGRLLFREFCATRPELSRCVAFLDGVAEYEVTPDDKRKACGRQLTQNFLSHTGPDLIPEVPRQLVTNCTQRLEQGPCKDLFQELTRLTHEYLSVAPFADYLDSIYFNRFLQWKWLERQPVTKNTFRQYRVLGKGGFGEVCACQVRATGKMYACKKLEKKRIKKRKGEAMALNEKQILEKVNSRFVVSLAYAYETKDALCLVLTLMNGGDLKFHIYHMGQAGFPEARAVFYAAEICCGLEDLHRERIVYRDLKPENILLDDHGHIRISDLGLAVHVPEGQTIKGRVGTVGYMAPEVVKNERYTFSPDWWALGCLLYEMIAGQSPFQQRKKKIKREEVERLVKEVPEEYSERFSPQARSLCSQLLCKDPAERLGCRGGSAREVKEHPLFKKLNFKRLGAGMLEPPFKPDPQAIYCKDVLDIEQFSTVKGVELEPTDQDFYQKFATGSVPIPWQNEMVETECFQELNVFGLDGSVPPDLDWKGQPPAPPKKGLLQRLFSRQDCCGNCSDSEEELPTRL
T5 sequence (Q13164 whole entry, the tested form may be a part): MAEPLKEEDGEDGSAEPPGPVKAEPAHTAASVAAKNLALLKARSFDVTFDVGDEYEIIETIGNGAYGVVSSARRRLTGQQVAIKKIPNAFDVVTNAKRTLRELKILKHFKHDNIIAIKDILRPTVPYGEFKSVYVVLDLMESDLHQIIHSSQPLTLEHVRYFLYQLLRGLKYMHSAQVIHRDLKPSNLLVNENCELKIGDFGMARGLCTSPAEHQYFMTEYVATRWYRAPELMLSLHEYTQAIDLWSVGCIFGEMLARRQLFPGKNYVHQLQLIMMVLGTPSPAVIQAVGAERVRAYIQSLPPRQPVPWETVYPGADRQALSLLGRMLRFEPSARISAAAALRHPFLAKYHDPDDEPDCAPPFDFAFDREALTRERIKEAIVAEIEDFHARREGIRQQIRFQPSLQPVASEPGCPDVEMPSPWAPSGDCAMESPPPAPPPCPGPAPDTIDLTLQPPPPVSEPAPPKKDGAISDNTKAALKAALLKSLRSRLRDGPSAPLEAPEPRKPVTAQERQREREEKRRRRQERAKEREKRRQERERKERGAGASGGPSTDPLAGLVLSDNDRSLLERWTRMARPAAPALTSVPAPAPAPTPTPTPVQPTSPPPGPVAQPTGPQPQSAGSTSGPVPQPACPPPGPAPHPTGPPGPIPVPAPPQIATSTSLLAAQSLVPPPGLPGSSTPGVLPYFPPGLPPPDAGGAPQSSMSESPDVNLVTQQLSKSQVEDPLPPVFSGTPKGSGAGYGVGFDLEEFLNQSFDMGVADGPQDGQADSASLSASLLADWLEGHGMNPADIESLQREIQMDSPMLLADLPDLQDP

## C=CC(=O)Nc1ccc(C(=O)N2CC[C@@H](Nc3ncc(C#N)cn3)C2)cc1 [Compound 4, (R)-N-(4-(3-((5-cyanopyrimidin-2-yl)amino)pyrrolidine-1-carbonyl)phenyl)acrylamide]
IKKbeta
  inhibition at 1 µM: 1%
CDK19/CycC
  inhibition at 1 µM: 10%
RPS6KA2
  inhibition at 1 µM: 12%
CDK6/CycD2
  inhibition at 1 µM: -14%
ERK5
  inhibition at 1 µM: 6%
JNK3
  inhibition at 1 µM: -4%
ERK1
  inhibition at 1 µM: -4%
EPHB3
  inhibition at 1 µM: 5%
CDK9/CycK
  inhibition at 1 µM: 21%
CDK6/CycD3
  inhibition at 1 µM: 14%
PRKG1
  inhibition at 1 µM: -12%
PAK3
  inhibition at 1 µM: 1%
PASK
  inhibition at 1 µM: -5%
p38beta
  inhibition at 1 µM: 8%
DDR2
  inhibition at 1 µM: -9%
EIF2AK2
  inhibition at 1 µM: 15%
ABL1
  inhibition at 1 µM: -1%
DMPK
  inhibition at 1 µM: 11%
SGK2
  inhibition at 1 µM: 1%
INSR
  inhibition at 1 µM: 8%
GRK6
  inhibition at 1 µM: 0%
FLT3
  inhibition at 1 µM: -8%
NEK1
  inhibition at 1 µM: 0%
BUB1B
  inhibition at 1 µM: 13%
LTK
  inhibition at 1 µM: 1%
CLK4
  inhibition at 1 µM: -2%
GRK3
  inhibition at 1 µM: 5%
SNK
  inhibition at 1 µM: 9%
HIPK2
  inhibition at 1 µM: 0%
DAPK2
  inhibition at 1 µM: 9%
FES
  inhibition at 1 µM: -2%
